Test results as given in patent US20230391868A1, “COMPOSITIONS FOR AND METHODS OF TREATING CANCER” (The George Washington University, priority 2022, published 2023).

Columns and labels:
mouse CD47 promoter = experiment: CD47-luciferase reporter assay in SM1 melanoma cells; assay type: cell-based; conditions: SM1 transfected with CD47-luciferase reporter; NextA at different concentrations (FIG. 3D)
Experimental: The mouse CD47 or SIRPα promoters were cloned into a promoterless pGL4.20[luc2/puro] vector using Genentech's cloning services (San Francisco, CA, USA). Vectors were transfected into SM1 and B16 melanoma cells using Lipofectamine 3000 (L3000008, ThermoFisher) and transfected cells were selected using puromycin. A31A7 macrophages were transiently transfected using jetOPTIMUS DNA transfection reagent (Polyplus, NY, USA). Luminescence was measured using the Luciferase Assay System (E4550, Promega) in a SpectraMax i3× Multi-Mode Microplate Reader (Molecular Devices).
Furthermore, to investigate whether HDAC6 controls CD47 expression at the transcriptional level, the mouse CD47 promoter was cloned into a promoterless pGL4.20[luc2/puro] vector. SM1 melanoma cells were transfected with the CD47-luciferase reporter vector and stimulated with IFNγ in the absence or presence of NextA at different concentrations and measured luminescence. Treatment with NextA repressed IFNγ-mediated upregulation of Cd47 (FIG. 3D).

SM1 cells = experiment: Phagocytosis kinetics by live cell imaging; assay type: cell-based, mouse
Experimental: After co-culture, slides were fixed in 4% paraformaldehyde. Slides were incubated overnight with primary anti-GFP antibody (Cell Signaling, 2956) at 4° C. Slides were incubated with goat anti-rabbit IgG conjugated to Alexa Fluor 488 (A11008, ThermoFisher). Slides were mounted using VECTASHIELD Antifade Mounting Medium with DAPI (H-1200-10, Vector Laboratories, Burlingame, CA). Slides were imaged using a Zeiss 710 confocal microscope. Phagocytosis was quantified using Fiji by Image J, and the percentage of phagocytosis was calculated by dividing the number of GFP+ macrophages containing red dye in their vesicles out of total GFP+ macrophages. Live imaging was performed following a similar protocol and images were acquired through ImageXpress Pico Automated Cell Imaging System (Molecular Devices, San Jose, CA, USA).
To assess the phagocytosis kinetics in those groups, live cell imaging was performed and phagocytosis was tracked for 4 hr. after the macrophages and SM1 cells were co-cultured for an hour. Images were acquired every four minutes thereafter.

SIRPα = experiment: Cell surface SIRPα expression by flow cytometry; assay type: cell-based, mouse; conditions: A31A7 macrophages and BMDMs; flow cytometry (FIG. 2C)
Experimental: Cell surface expression of CD47 in melanoma cells was evaluated using PE anti-mouse CD47 (clone miap301, […], Biolegend), PE anti-human CD47 (clone CC2C6, 323108, Biolegend), and their respective isotype controls (400508, 400113, respectively, Biolegend). SIRPα was evaluated using APC anti-mouse CD172a (SIRPα) antibody (clone P84, 144014, Biolegend) or APC anti-human CD172a/b (SIRPα/β) antibody (clone SE5A5, 323810, Biolegend) and their respective isotype controls (400411, Biolegend).

SM1 melanoma cells = experiment: Flow cytometry-based phagocytosis assay, BMDMs co-cultured with SM1 cells; assay type: cell-based, mouse; conditions: NextA treated vs untreated macrophages (FIG. 4)
Experimental: To evaluate phagocytosis by flow cytometry, SM1 melanoma cells were co-cultured with A3.1A7 cells or BMDMs derived from wild-type C57/Bl6 mice at a 2:1 ratio for 2 hr. or 4 hr. in serum-free media. Twenty-four (24) hours prior to co-culture, macrophages were polarized to their respective phenotypes as previously described in the presence or absence of NextA, and melanoma cells were untreated or treated with NextA. On the day of the co-culture, melanoma cells were stained with 1 μM of CellTrace™ CFSE Cell Proliferation Kit (ThermoFisher, C34554) and were washed extensively to remove excess dye. Phagocytosis assays were carried out in the presence of anti-mouse CD47 (clone miap301, 127502, Biolegend, San Diego, CA) and its respective isotype control (IgG, 400502, Biolegend), or anti human CD47 (clone CC2C6, 323102, Biolegend) or isotype control (MOPC-21, BE0083, Biolegend) at 25 μg/mL. Co-culture was set up in non-cell culture treated 96 U-well plates. […]
Flow cytometry data was acquired a BD FACS Celesta Cell Analyzer, and data analysis was performed with FlowJo software version 10.3. Phagocytosis was determined as the percentage of CFSE+F4/80+ or CFSE+ CD11b+ cells out of total F4/80+ or total CD11b+ cells. […]

In the case of CCCCN(Cc1ccc(C(=O)NO)cc1)C(=O)Nc1ccccc1 [NextA, Nexturastat A], the “IFNγ-mediated upregulation of Cd47 (luminescence)” value (mouse CD47 promoter) is reported as “repressed”, the maximum phagocytosis reached (SM1 cells; M1 NextA treated macrophages, IgG control group (FIG. 4L)) is reported as “approximately 20%” and the “phagocytosis rate over time” value (SM1 cells; M1 macrophages with SM1 cells, tracked for 4 hr (FIG. 4L)) is reported as “steady increase in phagocytosis over time”. For the same compound, the “SIRPα expression on the cell surface” value (SIRPα) was “significantly decreased” and the “phagocytic capacity of macrophages” value (SM1 melanoma cells) was “enhanced the phagocytic capacity”.
